In US11840560B2, “Prodrugs and uses thereof” (Novo Nordisk A/S, priority 2022, dated 2023):
*1 amine or outer side, *2 acyl side, *3 side chain or, on linkers, in order; H or OH if unused. Side-chain parts run from the residue outwards. [ ]: non-standard residue; d: D form. The star is where a group is joined. C16 diacid = O=C(O)CCCCCCCCCCCCCCC(=O)*; γGlu = O=C(O)[C@H](CCC(=O)[*:2])N[*:1]; AEEA = NCCOCCOCC(=O)O; Aib = CC(C)(N)C(=O)O; Sar = CNCC(=O)O

Legend:
physchem = type: physicochemical; conditions: buffer, pH 7.4
How it was run: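 Prodrugs at 100 μM were incubated in PBS, pH 7.4, at 37° C, with aliquots taken every 24–72 h for LCMS with UV detection at 214 nm. The ratio of prodrug AUC to total prodrug + drug + DKP AUC was calculated. Half-life came from a linear regression of −ln(ratio) versus time.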

in vivo [1] = assay: in vivo; design: species or system Göttingen minipigs; conditions: female, Göttingen, minipig, iv
Description: The purpose of this method is to determine the half-life in vivo of the derivatives of the present invention after i.v. administration to minipigs, i.e. the prolongation of their time in the body and thereby their time of action. This is done in a pharmacokinetic (PK) study, where the terminal half-life of the derivative in question is determined. By terminal half-life is generally meant the period of time it takes to halve a certain plasma concentration, measured after the initial distribution phase.
Female Göttingen minipigs were obtained from Ellegaard Göttingen Minipigs (Dalmose, Denmark) approximately 7-14 months of age and weighing from approximately 16-35 kg were used in the studies. The minipigs were housed individually and fed restrictedly once daily with SDS minipig diet (Special Diets Services, Essex, UK).
After at 3 weeks of acclimatisation two permanent central venous catheters were implanted in vena cava caudalis in each animal. The animals were allowed 1 week recovery after the surgery, and were then used for repeated pharmacokinetic studies with a suitable wash-out period between successive derivative dosing.
The animals were fasted for approximately 18 hours before dosing and from 0 to 4 hours after dosing but had ad libitum access to water during the whole period.
The sodium salts of compounds of Examples 1 were prepared using method SX_A under General Methods for preparation of the compounds of the invention. The resulting sodium salts were dissolved to a concentration of 50-300 nmol/mL in a buffer containing 0.007% polysorbate 20, 50 mM sodium phosphate, 70 mM sodium chloride, pH 7.4. Intravenous injections (the volume corresponding to usually 1-20 nmol/kg, for example 0.02-0.05 mL/kg) of the compounds were given through one catheter, and blood was sampled at predefined time points for up to 21 days post dosing (preferably through the other catheter). Blood samples (for example 0.8 mL) were collected in 8 mM EDTA buffer and then centrifuged at 4° C. and 1942 g for 10 minutes.
Plasma was pipetted into Micronic tubes on dry ice and kept at −20° C. until analysed for plasma concentration of the compounds using ELISA, or a similar antibody-based assay, or LCMS. Individual plasma concentration-time profiles were analysed by a non-compartmental model in Phoenix WinNonLin ver. 6.4. (Pharsight Inc., Mountain View, CA, USA), and the resulting terminal half-lives (harmonic mean) determined.
The terminal half-lives and/or the observed terminal half-lives, measured as described herein in General Methods for Measuring Terminal Half-Life in Minipigs are shown in Table 7. […] This provides evidence that conversion of prodrug to parent compound is occurring in vivo. The terminal half-life of the prodrug may be faster or slower than the corresponding parent compound due to the contribution of conversion on the terminal half-life of the prodrug.

in vivo [2] = assay: in vivo; design: species or system beagle dogs; conditions: dog, po, 300 mg
How it was run: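 Fasted male beagle dogs (groups of 6-8) were given a single oral tablet of 2-4 mg compound with 300 mg SNAC, optionally preceded 10 min earlier by ~3 nmol/kg SEQ ID NO.: 7 s.c. EDTA plasma was sampled for up to 600 hours and analysed by LC-MS for terminal half-life and exposure.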

half-life at 100 μM (physchem): 244 h
half-life (in vivo [1]): 118 h
AUC/Dose (in vivo [2]): 41.2 kg·h/L
Cmax/Dose (in vivo [2]): 0.66 kg/L
Tmax (in vivo [2]; male, beagle): 4 h
half-life (in vivo [2]; male, beagle): 146 h
Substance: H-[dK]([γGlu-C16 diacid])[Sar]Y[Aib]EGTFTSDYSILLEEQAAREFIEWLLAGGPSK([AEEA-AEEA-γGlu-C16 diacid])GAPPPS-OH [Compound 1]
